Common to all, as to type: biochemical
Assay [1] addresses T1, Taq DNA polymerase (Thermus aquaticus, UniProt P19821).
T1 construct: purchased Sigma Aldrich, St. Louis, Mo
The experiment in a line: SYBR Green quantitative real-time PCR amplification efficiency on human genomic DNA. Further details: key to Reaction Efficiencies CD14F: *: No amplification product; key to Ct 14-3-3 / Ct CD14F / Ct HoxA2: cycle at which fluorescence exceeds a defined threshold. The conditions noted are these: for Efficiency (dilutional efficiency) 14-3-3 / Efficiency (dilutional efficiency) CD14F / Efficiency (dilutional efficiency) HoxA2 / Efficiency (dilutional efficiency) PGK1: slope of serially diluted template plots. An excerpt: The efficiency of amplification by Taq DNA polymerase in the presence of Tween 20 or the anionic detergent, poly (ethylene glycol) 4-nonylphenyl 3 sulfopropyl ether potassium salt, was compared using SYBR Green quantitative real-time PCR (qPCR) to amplify four different fragments in Msel-digested or intact human genomic DNA. Each reaction comprised 1× Jumpstart Taq Ready mix (Sigma Aldrich, St. Louis, Mo.) formulated with Tween 20 or poly (ethylene glycol) 4-nonylphenyl 3 sulfopropyl ether potassium salt, 1×ROX (reference dye), 0.8×SYBR green, 0.4 μM primers. The template was serially diluted such that reactions contained 25 ng, 2.5 ng, or 0.25 ng of intact DNA or 400 ng, 40 ng, of 4 ng of digested DNA. The cycling profile was 95° C. for 3 min, 35 cycles of 95° C. for 30 sec, 55° C. for 60 sec, and 72° C. for 120 sec.
Table 2 presents the Ct values (which is the cycle that the fluorescence exceeds a defined threshold value) for each amplified product using the different templates. The ‘no template’ control reactions (for every primer pair) produced no amplicons.
The efficiency of amplification was derived from the slopes of the serially diluted template amplification plots (dilutional efficiency), and the percent efficiency is also presented in Table 2.
Individual reaction efficiencies were calculated in an effort to explore the nature of the dilutional efficiency effects. […] That is, reactions with lower amounts of template were less efficiently primed or initiated in the presence of Tween 20 than in the presence of the anionic surfactant. Once the amplification process began, however, the reaction efficiencies were detergent independent.
Background: Quantitative PCR measures a nucleic acid by following its amplification.

Assay [2] deals with T1, Taq DNA polymerase. The experiment in a line: PCR detergent screening for ability to stabilize Taq DNA polymerase. As to conditions: for Detergent supported PCR in screening reactions: detergent tested at 5%, 0.5%, 0.05%, 0.005% or 0.0005%. The procedure: A PCR assay was used to screen 47 of the potential candidate detergents for their ability to stabilize Taq DNA polymerase. The final concentration of each detergent tested was 5%, 0.5%, 0.05%, 0.005%, or 0.0005%. A forward primer (5′-[…]-3′; SEQ ID No:1) and a reverse primer (5′-[…]-3′; SEQ ID No:2) were designed to amplify a 500 bp fragment of lambda DNA. Each 10 μl reaction contained:
1 μl 10 μM Forward Primer
1 μl 10 μM Reverse Primer
0.1 μl 5 Units/μl Taq DNA polymerase
The cycling parameters were 94° C. for 15 min and 30 cycles of 94° C. for 30 sec and 70° C. for 30 sec, and a 4° C. hold. For each series of detergents tested, positive control reactions comprising 0.0005% Tween 20 were included, as well as negative control reactions without any detergent. An aliquot of each reaction was resolved by agarose gel electrophoresis.

The target of assay [3] is T1, Taq DNA polymerase. The experiment in a line: Specificity of PCR amplification (BsrGIO, SacIO fragments) on agarose gel. As to conditions: 352 bp and 360 bp fragments, HEK293 genomic DNA. The procedure: To determine whether amplification in the presence of the anionic detergent, poly (ethylene glycol) 4-nonylphenyl 3-sulfopropyl ether potassium salt, produced less non-specific products, formulations comprising Tween 20 were compared to an anionic detergent formulation. Primers (see Table 4) were designed to amplify a 352 by fragment (BsrGIO) and a 360 by fragment (SacIO) in human genomic DNA. The reactions (50 μl) contained […] HEK293 genomic DNA, […], 1×PCR Buffer, 0.2 mM dNTPs, 0.05 U/μL Taq, and 4% DMSO. Thermocycling parameters were 94° C. for 2 min, 30 cycles of 94° C. for 20 sec, 58° C. for 30 sec, and 72° C. for 80 sec, a final extension at 72° C. for 10 min, and a 4° C. hold.
Aliquots of each sample were run on an agarose gel (FIG. 3). […] This finding raises the possibility that there may be a multimolecular complex comprising template, primer, detergent, and enzyme, and it is possible that the anionic detergent increased the coulombic repulsion between template/primers and the […].

Assay [4] deals with T1, Taq DNA polymerase. The experiment in a line: Long-term stability of Taq formulations with DTT, assessed by PCR. The conditions noted are these: stored at 25° C. 6 to 40 days, higher concentration of DTT (0.2 mM). The method, then:
The long-term stability of Taq formulated with either Tween 20, an anionic detergent, or a zwitterionic detergent was compared in the presence of two concentrations of DTT. Taq was formulated with 0.01% or 0.1% Tween 20, 0.1% or 1% poly(ethylene glycol) 4-nonylphenyl 3 sulfopropyl ether potassium salt, or 1% CHAPS. Each formulation was stored in the presence of 0.02 mM DTT or 0.2 mM DTT at 25° C. for periods of time ranging from 6 days to 40 days. The calculated corresponding periods for storage at −20° C. ranged from about 1.5 years to about 10 years (see FIG. 2). The ability of various formulations of Taq to support PCR was assessed using a PCR assay similar to that described in Example 1. The same primers and reactions conditions were used.
An aliquot of each reaction was resolved by agarose gel electrophoresis.

T1 sequence (P19821 whole entry): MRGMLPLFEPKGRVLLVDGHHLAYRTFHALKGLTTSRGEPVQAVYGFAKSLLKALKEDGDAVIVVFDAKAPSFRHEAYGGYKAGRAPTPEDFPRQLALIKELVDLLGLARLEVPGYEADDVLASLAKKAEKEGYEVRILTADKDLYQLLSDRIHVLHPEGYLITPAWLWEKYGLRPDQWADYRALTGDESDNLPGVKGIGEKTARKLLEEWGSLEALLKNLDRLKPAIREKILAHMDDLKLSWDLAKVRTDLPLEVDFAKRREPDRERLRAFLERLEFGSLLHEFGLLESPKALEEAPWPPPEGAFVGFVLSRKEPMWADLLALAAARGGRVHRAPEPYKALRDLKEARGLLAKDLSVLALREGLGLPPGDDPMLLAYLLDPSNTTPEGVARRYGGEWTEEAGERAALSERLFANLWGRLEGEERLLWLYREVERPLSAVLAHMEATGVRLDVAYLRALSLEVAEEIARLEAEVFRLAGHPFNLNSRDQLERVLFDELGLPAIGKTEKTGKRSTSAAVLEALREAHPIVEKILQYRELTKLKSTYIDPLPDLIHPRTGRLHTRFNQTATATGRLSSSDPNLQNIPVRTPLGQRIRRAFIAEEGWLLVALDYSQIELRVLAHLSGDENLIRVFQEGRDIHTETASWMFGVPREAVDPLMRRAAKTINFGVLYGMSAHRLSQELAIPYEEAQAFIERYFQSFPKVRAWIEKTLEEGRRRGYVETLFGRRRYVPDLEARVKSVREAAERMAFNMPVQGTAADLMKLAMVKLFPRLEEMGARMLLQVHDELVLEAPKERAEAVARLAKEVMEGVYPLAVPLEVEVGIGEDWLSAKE

In the case of “poly (ethylene glycol) 4-nonylphenyl 3-sulfopropyl ether potassium salt [Anionic]”, the “Ct 14-3-3” value is on record as 30.8 in assay [1] (Intact DNA, 0.25 ng); 27.88 in assay [1] (Intact DNA, 2.5 ng); 24.31 in assay [1] (Intact DNA, 25 ng); 28.65 in assay [1] (Mse-I digested DNA, 4 ng); 24.86 in assay [1] (Mse-I digested DNA, 40 ng); 21.17 in assay [1] (Mse-I digested DNA, 400 ng). Besides, the “Ct CD14F” value in assay [1] (Intact DNA, 0.25 ng) is “No Ct”; in assay [1] (Intact DNA, 2.5 ng) it was 33.98; in assay [1] (Intact DNA, 25 ng), 28.72; in assay [1] (Mse-I digested DNA, 4 ng), “No Ct”; in assay [1] (Mse-I digested DNA, 40 ng), 34.72; in assay [1] (Mse-I digested DNA, 400 ng), 30.15. In addition, the “Ct HoxA2” value in assay [1] (Intact DNA, 0.25 ng) came to 30.41; in assay [1] (Intact DNA, 2.5 ng) it was 26.92; in assay [1] (Intact DNA, 25 ng) it was 23.33; in assay [1] (Mse-I digested DNA, 4 ng), 29.96; in assay [1] (Mse-I digested DNA, 40 ng), 26.47; in assay [1] (Mse-I digested DNA, 400 ng), 22.27. The “Ct PGK1” value in assay [1] (Intact DNA, 0.25 ng) stood at 31.59; in assay [1] (Intact DNA, 2.5 ng) it was 28.33; in assay [1] (Intact DNA, 25 ng), 23.62; in assay [1] (Mse-I digested DNA, 4 ng), 31.38; in assay [1] (Mse-I digested DNA, 40 ng) it was 27.95; in assay [1] (Mse-I digested DNA, 400 ng), 23.17. Further, the “Reaction Efficiencies 14-3-3” value in assay [1] (Intact DNA, 0.25) was found to be 98%; in assay [1] (Intact DNA, 2.5), 115%; in assay [1] (Intact DNA, 25), 102%; in assay [1] (MseI digested DNA, 4 ng), 103%; in assay [1] (MseI digested DNA, 40 ng), 107%; in assay [1] (MseI digested DNA, 400 ng) it was 101%. Further, the “Reaction Efficiencies CD14F” value in assay [1] (Intact DNA, 0.25) is given as “*”; in assay [1] (Intact DNA, 2.5), 124%; in assay [1] (Intact DNA, 25), 99%; in assay [1] (MseI digested DNA, 4 ng) it was “*”; in assay [1] (MseI digested DNA, 40 ng), 92%; in assay [1] (MseI digested DNA, 400 ng), 99%. Also, the “Reaction Efficiencies HoxA2” value amounted to 102% in assay [1] (Intact DNA, 0.25); 102% in assay [1] (Intact DNA, 2.5); 104% in assay [1] (Intact DNA, 25); 99% in assay [1] (MseI digested DNA, 4 ng); 101% in assay [1] (MseI digested DNA, 40 ng); 100% in assay [1] (MseI digested DNA, 400 ng). Besides, the “Reaction Efficiencies PGK1” value in assay [1] (Intact DNA, 0.25) was 97%; in assay [1] (Intact DNA, 2.5) it was 101%; in assay [1] (Intact DNA, 25), 98%; in assay [1] (MseI digested DNA, 4 ng), 97%; in assay [1] (MseI digested DNA, 40 ng), 102%; in assay [1] (MseI digested DNA, 400 ng) it was 97%. The “Efficiency (dilutional efficiency) 14-3-3” value in assay [1] (Intact DNA) worked out at 105%; in assay [1] (Mse-I digested DNA), 75%. In addition, the “Efficiency (dilutional efficiency) CD14F” value turned out to be 26% in assay [1] (Intact DNA) and 42% in assay [1] (Mse-I digested DNA). Also, the “Efficiency (dilutional efficiency) HoxA2” value in assay [1] (Intact DNA) is 86%; in assay [1] (Mse-I digested DNA), 69%. In addition, the results for the “Efficiency (dilutional efficiency) PGK1” value in assay [1] (Intact DNA) and in assay [1] (Mse-I digested DNA) were 63% and 58%, respectively. Moreover, the entries for the “Average efficiency of the three amplicons with efficiencies for both formulations” value in assay [1] (digested templates) and in assay [1] (intact templates) were 67.3% and 84.7%, respectively. The “Efficiency compared with the corresponding Tween 20 formulation” value in assay [1] (each amplicon) was “higher efficiency”. The “Ct values compared with Tween 20-containing amplification mixes” value in assay [1] (higher dilutions of template) was “lower Ct values at higher dilutions”. Moreover, in assay [2], the “Detergent supported PCR in screening reactions” value (shortened to “Detergent supported PCR”) is “supported PCR”. Moreover, the “Non-specific, secondary amplification products compared with standard Tween 20 formulations” value in assay [3] is “fewer non-specific, secondary amplification products”. Besides, the “Ability of stored Taq formulation to support PCR” value in assay [4] is recorded as “able to support PCR at all the times tested”.

Turning to `C[C@H](CCC(=O)NCCC[N+](C)(C)CCCS(=O)(=O)[O-])[C@H]1CC[C@H]2[C@@H]3[C@H](O)C[C@@H]4C[C@H](O)CC[C@]4(C)[C@@]3(C)C[C@H](O)[C@]12C` [CHAPS, 3-[(3-cholamidopropyl)dimethylammonio]-1-propanesulfonate], the “Detergent supported PCR” value in assay [2] was “supported PCR”. In assay [4], the “Ability of stored Taq formulation to support PCR” value is given as “substantially able to support PCR”.

For “nonyl nonoxynol-15 phosphate [Rhodafac RM710]”, the “Detergent supported PCR” value in assay [2] was “supported PCR”. Moreover, in assay [2] (low concentration of the detergent), the “Amplified products (500 bp lambda DNA fragment) on agarose gel” value is given as “Amplified products were present”.

For “polyoxyethylene(150)dinonylphenyl ether [Igepal® DM-970]”, the “Detergent supported PCR” value in assay [2] is on record as “supported PCR”.

With `C[C@H](CCC(=O)NCCC[N+](C)(C)CC(O)CS(=O)(=O)[O-])[C@H]1CC[C@H]2[C@@H]3[C@H](O)C[C@@H]4C[C@H](O)CC[C@]4(C)[C@H]3C[C@H](O)[C@]12C` (stereo partly shown) [CHAPSO, 3-[(3-cholamidopropyl)dimethylammonio]-2-hydroxy-1-propanesulfonate], the “Detergent supported PCR” value in assay [2] is recorded as “supported PCR”.

In the case of poly(ethylene glycol) monolaurate, the “Detergent supported PCR” value in assay [2] is listed as “supported PCR”.

For the origin of these results see patent publication US7972828B2, “Stabilized compositions of thermostable DNA polymerase and anionic or zwitterionic detergent” (Sigma-Aldrich Co., priority 2006, dated 2011).
